Experiments:
[1] = test system: ECF-resistant MKN-74 cells; experiment: Crystal violet staining and WST-1 analysis of regrowth after ECF treatment of NINJ2 knockdown cells; format: cell-based, human; settings: 3 weeks after ECF treatment; NINJ2 knockdown ECF-resistant MKN-74 cells
Method: To evaluate whether NINJ2 is involved in drug resistance, a stable NINJ2 knockdown (K/D) ECF-resistant cancer cell line was prepared using shRNA lentiviral particles and puromycin. More specifically, for stable NINJ2 knockdown in ECF-resistant MKN-74 cells, two shRNAs (TRCN0000063773 (Clone-1) and TRCN0000063775 (Clone-2)) targeting different partial regions of NINJ2 genes (Isoform-1, Isoform-2 and Isoform-3) as shown in Table 1 below were used, and a non-targeting pLKO.1-puro shRNA control (SHC002) was used as a negative control. The shRNA clones (TRCN0000063773, TRCN0000063775 and SHC002) containing the pMDLg/pRRE, pRSV-Rev and pMD2.G plasmids, respectively, were transfected into 293T cells using Fugene HD (Promega) according to the manufacturer's instructions. After 48 hours, each supernatant was collected and filtered, and ECF-resistant MKN-74 cells were transduced with lentiviral particles and cultured in a growth medium containing puromycin. After NINJ2 knockdown in the lentivirus-transduced MKN-74 cells was confirmed using qRT-PCR, the cells were treated with ECF, and an examination was made as to whether cancer cells in the negative control (Mock) and the shNINJ2 groups (clone 1 and clone 2) re-grew.

[2] = test system: ECF-resistant cancer cells (RES) from the MKN-28/74 cell line; experiment: Nude mouse xenograft of ECF-resistant MKN-28/74 cells given ECF and siRNA; format: in vivo, Balb/c nude mice; settings: ECF (5.7 mg/kg epirubicin, 6.67 mg/kg cisplatin, 22 mg/kg 5-FU) intratumorally once a week; NINJ2 mRNA expression inhibited
Method: FIGS. 9A and 9B show the results of measuring changes in tumor volume and weight after transplanting wild-type or scrambled siRNA RES and siNINJ2 RES cancer cell lines from the MKN-28/74 cell line into nude mice and then administering ECF and siRNA to the nude mice when the tumor volume reached 100 mm^3, according to one example of the present invention.
A mouse model was prepared by xenografting Balb/c nude mice with the spheroids prepared from the MKN-28/74 cell line by the method of Example 3. Specifically, […] ECF-resistant cancer cells (ECF-R cancer cells) and parental cancer cells were subcutaneously injected into Balb/c nude mice, respectively, and an examination was made as to whether the animal model xenografted with the ECF-resistant cancer cells (RES) established in vitro had acquired ECF drug resistance. […] To this end, 5.7 mg/kg of epirubicin, 6.67 mg/kg of cisplatin and 22 mg/kg of 5-FU were administered intratumorally to xenograft model mice having a tumor size of 100 mm^3 once a week for 15 days, and the tumor weight and the tumor volume were measured every 3 days using digital calipers. […]
Referring to FIG. 9A, it was confirmed that the tumor volume changed after the ECF drugs were administered to the animal model xenografted with each cell line group. FIG. 9B depicts graphs showing the results of quantifying the changes in the tumor volume and weight.

| Substance | recurrence and regrowth of cancer cells compared to negative control (Mock) [1] | tumor volume compared to the RES group [2] | tumor weight compared to the RES group [2] |
| --- | --- | --- | --- |
| clone-2: NINJ2-targeting shRNA, lentiviral; target region SEQ ID NO: 6, hairpin sequence SEQ ID NO: 10 (guide CCGGCTGAACCTGAATGAGGTAGAACTCGAGTTCTACCTCATTCAGGTTCAGTTTTTG) | significantly inhibited | – | – |
| siNINJ2: siRNA against NINJ2, sense SEQ ID NO: 11 and antisense SEQ ID NO: 12 (sense GUAAGGCAUGUCUGUCUAAGGCC; antisense GGCCUUAGACAGACAUGCCUUAC; listed as RNA, chemistry not given here) | – | significantly decreased | significantly decreased |
| clone-1: NINJ2-targeting shRNA, lentiviral; target region SEQ ID NO: 5, hairpin sequence SEQ ID NO: 9 (guide CCGGCGTGGTCATTGCACGGCTGAACTCGAGTTCAGCCGTGCAATGACCACGTTTTTG) | significantly inhibited | – | – |

Source: patent publication US12716888B2, “Composition for diagnosis or treatment of anticancer drug resistance” (priority 2020, dated 2026)
